In patent US6617158B1, “Method for stimulating the production of fetal hemoglobin producing erythroid cells” (New England Medical Center, priority 1999, dated 2003):

How the values were obtained:
Format in all cases: cell-based, human
[1] = system: F+ cells (HbF-containing nucleated red cells) in cultures of mononuclear cells from adult blood; experiment: Erythroid culture of adult blood mononuclear cells; proportions of F+ cells by two-color flow cytometry
[2] = system: F+ cells (HbF-containing nucleated red cells) in cultures of mononuclear cells from adult blood; experiment: as above; remark: listed apart in the source
Procedure: (§1) Cells are fixed with 5% formaldehyde in PBS at 37° C. for 1 h, exposed to 100% methanol for 5 min at room temperature, then permeabilized in Solution B of the Caltag Fix & Perm kit during incubation with phycoerythrin-conjugated antibodies to the gamma chain of hemoglobin (HbF) (Cortex) and fluorescein isothiocyanate-conjugated antibodies to the beta chain of hemoglobin (HbA) or to fluorescein isothiocyanate-conjugated antibodies specific for sickle cell hemoglobin (HbS) (Isolabs). After incubation, cells are washed and suspended in PBS with 1% formaldehyde and 0.1 μg/ml Hoechst 33342.
(§2) Cells are processed in a Becton-Dickinson Vantage flow cytometer/cell sorter with dual laser excitation (UV and 488 nm). Intact nucleated cells are selected by gating on UV-excited Hoechst […] fluorescence (430 nm) which yielded DNA histograms as well as cell cycle information by BudR-induced fluorescence quenching. Bohmer, Cell Tissue Kinet. 12: 101-110 (1979). Phycoerythrin (PE) and Fluorescein isothiocyanate (FITC) are excited at 488 nm and measured at 530 nm and 575 nm, […]. Correlated fluorescence values are recorded with appropriate color compensation. The accuracy of color compensation over 4 logs of fluorescence values is limited. To obtain absolute cell counts from the relative particle counts that a flow cytometer provides, known amounts of fluorescent plastic beads (Coulter Immunobrite Level IV) are added to the cell suspensions. Bohmer, Cell Tissue Kinet. 17: 593-600 (1984).
Blood samples were kept at room temperature and processed as soon as possible (between 2 h and 24 h) after collection. The blood was diluted 1:4 with phosphate buffered saline (PBS), the mononuclear cells isolated by density gradient (density 1.077), washed in PBS with 1% BSA (bovine serum albumin) and cultured without further processing in standard 6-well plates, 3-5 ml per well, at a maximum density of 0.3 million/ml. The standard medium (referred to as “control” medium) comprised a mixture of 2/3 Iscoves MDM and 1/3 RPMI1640, containing methylcellulose (0.9%), C—CHS (1%), EPO (1 U/ml), SCF (20 ng/ml), IL3 (10 ng/ml), insulin (3 μg/ml), iron-saturated transferring (70 μg/ml), mercaptoethanol ([…]). Cytokines were from R&D Systems, Minneapolis, Minn. or Genzyme, Cambridge, Mass.
A relatively brief exposure to TGF-beta during the first few days of cell culture caused a lasting shift towards HbF expression with no reduction in subsequent clonal expansion (see data below). […]
The effect of TGF-beta treatment on cell cultures was examined and compared to the effect of serum. […] On day 7, cultures containing hundreds of colonies were turned into single-cell suspensions and the correlated contents of HbA and HbF measured by flow cytometry (FIG. 1). […]

[3] = system: F+ and F-A+ cells in cultures of mononuclear cells from adult blood; experiment: Absolute numbers of F+ and F-A+ cells per culture and long-term proliferation
Procedure: FIG. 5A is an example of a time course from one experiment. Cultures were treated with TGF-beta for 4 days, then propagated without TGF-beta, with further subcultivation and dilution on days 7 (1:10), 10 (1:5) and 13 (1:5). Absolute numbers of F+ and F−A+ cells per culture were determined on days 7, 10, 13 and 16. Total cell numbers were calculated using preceding culture dilution factors in the following manner: at each time of analysis, some of the cells were removed for counting, those that go back into the culture after counting are seeded with a dilution of fresh medium, to avoid medium exhaustion. Therefore, the actual numbers in the plates increase only between seeding and harvest. To calculate cell production over the whole culture time, it is necessary to multiply the counted cell numbers in the plates with all previous culture dilution factors. Closed symbols depict data from F−A+ cells, open symbols show F+ cells, and triangles show TGF-beta-treated cultures, while circles show the controls.
FIG. 5B is a graph indicating the TGF-beta-induced change of total F+ and F− cell numbers, shown as ratio of N(TGF)/N(CON). Cultures were treated with TGF-beta for 4 days., then propagated without TGF-beta, with further subcultivation and dilution on days 7 (1:10), 10 (1:5) and 13 (1:5). Absolute numbers of F+ and F−A+ cells per culture were determined on days 7, 10, 13 and 16. Individual experiments are distinguished by different symbols. […] Median values are indicated by horizontal bar.
as §2
Cultures that were treated with TGF-beta from day 0-4 were sub-cultivated again on days 7, 10 and 13, and the total numbers of F+ and F−A+ cells per culture were determined on days 7, 10, 13 and 16. […] Between day 7 and 10, both cell types in both cultures proliferated at approximately the same rate. After day 10, in control cultures, the proliferation decreased strongly and equally for both F+ and F−A+ cells, maintaining the ratio. No secondary colonies were seen following the subcultivation on day 13. In contrast, the proliferation in TGF-beta-treated cultures continued for much longer for both F+ and F−A+ cells. The F−A+ cell numbers were gradually reducing the gap with F+ cells, in agreement with the gradually decreasing proportions of F+ cells shown in FIG. 4. The number of days for which the proliferation of TGF-beta-treated cultures could be maintained was highly variable between donors and appeared to correlate with the initial numbers of clonogenic cells per ml of blood. […]

[4] = system: secondary erythroid colonies; experiment: Secondary erythroid colony counts after re-seeding (cell cycle effect); conditions: first few days of treatment
Procedure: Cell cultures were seeded in the presence (TGF) and absence (CON) of TGF-beta and on days 1, 2, 3 and 4 washed and re-seeded in the absence of TGF-beta. On day 9, the secondary colonies/clusters were counted and plotted as a function of the number of the day of treatment before reseeding. […] Statistics from 5 experiments are shown.
To test the cell cycle effect of TGF-beta during the first 4 days of treatment, the numbers of secondary erythroid colonies that developed upon re-seeding the cultures after different duration of TGF-beta exposure were counted (FIG. 7). A decrease in the number of secondary colonies upon re-seeding would reflect a decrease in the number of divisions undergone by colony forming cells before the cultures were re-seeded as a single-cell suspension. However, the secondary colonies became smaller and more numerous, without much effect of TGF-beta. The numbers of secondary colonies began to increase between day 1 and 2, equally in TGF-beta and controls. Between days 3 and 4 the beginnings of inhibition by TGF-beta could be seen.

[5] = system: Mononuclear cells from one sickle cell patient; experiment: Sickle cell erythropoiesis culture; HbF vs HbS flow cytometry profiles; conditions: continuous culture in 30% FCS or 10 ng/ml TGF-beta, day 7
Procedure: as §1
Mononuclear cells from one sickle cell patient were continuously cultured in 30% FCS or 10 ng/ml TGF-beta. The cells were labeled with the same antibodies to HbF but with antibodies specific for HbS instead of HbA.

TGF-beta 3: form of transforming growth factor beta titrated against TGF-beta 1
relative potency to increase proportions of F+ cells ([1]; titration, treatment began day 2, re-seeded day 4, F+ on day 7): in between TGF-beta 1 and TGF-beta 2

TGF-beta: recombinant human transforming growth factor beta-1
effect on proportions of F+ cells ([2]; 10 ng/ml, exposure day 0-4 or continuous, analysis day 7): increased the proportions of F+ cells dramatically | increased proportions of F+ cells during further culture growth ([2]; 4-day treatment, then control medium, re-seeded days 7 and 10): maintained | proportions of F+ cells, plateau ([2]; as function of exposure time (0-4 days), analysed day 7, 30% FCS or TGF-beta): 80% | total cell counts ([2]; continuous treatment up to day 7 (not the 4-day treatment)): strongly reduced total cell counts | N(TGF)/N(CON) of F+ cells ([3]; 2 (out of 5) experiments, proliferating beyond 3 weeks): exceeding 100 | total numbers of F-A+ cells versus control cultures ([3]; between days 7 and 10, treatment day 0-4): dramatically reduced | reduction of F-A+ cell numbers ([3]; day 7, treatment day 0-4): ca. 10 fold | F+ cell numbers, ratio N(TGF)/N(CON) ([3]; day 7, treatment day 0-4, median): 1 | F+ population level versus controls ([3]; on average, with increasing culture time, treatment day 0-4): ca. 10 fold | effect on cytokine-dependent proliferation (secondary colony numbers) [4]: did not interfere with cytokine-dependent proliferation | relative F+ cell numbers [5]: increase in relative F+ cell numbers | growth of newly developing secondary colonies ([1]; added from day 7, after approximately 2 days of treatment, 8-16-cell stage): complete and lasting growth arrest | effect on F+ proportions when added at later culture phase ([1]; newly supplied beginning on day 7): no effect on F+ proportions | proportions of F+ cells after exposure for only one day ([1]; one day exposure between days 2 and 4): substantially increased

B1: TGF-beta 2: form of transforming growth factor beta titrated against TGF-beta 1 (protein, UniProt P61812 303-414, looked up)
Transforming growth factor …: ALDAAYCFRNVQDNCCLRPLYIDFKRDLGWKWIHEPKGYNANFCAGACPYLWSSDTQHSRVLSLYNTINPEASASPCCVSQDLEPLTILYYIGKTPKIEQLSNMIVKSCKCS
modifications: Transforming growth factor beta-2
relative effectiveness versus TGF-beta 1 to increase proportions of F+ cells ([1]; titration, treatment began day 2, re-seeded day 4, F+ on day 7, average of two experiments): ~100 times
